From PMC11748689, “Pharmacological and structural understanding of the Trypanosoma cruzi proteasome provides key insights for developing site-specific inhibitors” (The Journal of Biological Chemistry, 2024)
Non-standard residues stand in square brackets, D forms with d. Residues, ends and D or L forms follow the SMILES beside them. *: point of attachment. Nva = CCC[C@H](N)C(=O)O; Cbz = O=C(OCc1ccccc1)*

How the values were obtained:
[1] = target: recombinant WT T. cruzi proteasome (caspase-like activity, β1) (Trypanosoma cruzi, UniProt V5BHX1); test: Caspase-like activity assay (Proteasome-Glo), recombinant wild-type T. cruzi proteasome; type: biochemical; conditions: for pIC50, Caspase Assay, Wild-type: mean ± SD, N = 3
Description: (§1) Chymotrypsin-, trypsin-, and caspase-like activity assays were performed using a commercially available Proteasome-Glo 3-substrate system assay kit (catalog number G8532) (Promega Corporation) according to the manufacturers protocols and as previously described ([24]).
(§2) Prior to running assays, Proteasome-Glo buffer was used to reconstitute the luciferin detection reagent (containing a recombinant thermostable luciferase enzyme). The resuspended luciferin detection reagent was then mixed with Proteasome-Glo chymotrypsin-, trypsin- or caspase-like substrates (either 40 μM suc-Leu-Leu-Val-Tyr-aminoluciferin, 30 μM Z-Leu-Arg-Arg-aminoluciferin (Z is benzyloxycarbonyl) or 40 μM Z-Nle-Pro-Nle-Asp-aminoluciferin respectively (these concentrations represent 2x final assay concentrations)). These substrate mixtures were allowed to incubate at room temperature for 60 min prior to use to allow the removal of any contaminating free aminoluciferin.
(§3) When proteasome inhibitors were to be screened in the chymotrypsin, trypsin, and caspase assays, test compounds were dispensed into assay wells using an ECHO 550 acoustic dispenser (Labcyte) (final DMSO concentration 1%). Compounds were tested in either a 10-point concentration series (30 μM top final assay concentration, 1 in 3 dilution series) or a 12-point concentration series (30 μM top final assay concentration, 1 in 2.5 dilution series).
(§4) Proteasome assays were then performed as described above using Promega Proteasome-Glo 3-substrate system assay kit. […] Diluted proteasome (4 μl) was added to assay plates using an electronic multichannel pipette (Integra Biosciences Ltd) and the proteasome incubated with compound for 60 min at room temperature.
(§5) Following the 60 min incubation of proteasome and compounds, assays were initiated with the addition of 4 μl of a substrate mix (containing substrate and the luciferin detection reagent) using an electronic multichannel pipette. Final assay concentrations of substrates used were either 20 μM Suc-Leu-Leu-Val-Tyr-aminoluciferin, 15 μM Z-Leu-Arg-Arg-aminoluciferin, or 20 μM Z-Nle-Pro-Nle-Asp-aminoluciferin for chymotrypsin-, trypsin-, or caspase-like activity, respectively. Following a further 60 min assay incubation, luminescence was read using an EnVision 2102 Multilabel Reader (PerkinElmer, Inc) with 0.2 s per well reading time.
(§6) All data processing was performed using Microsoft Excel for Microsoft 365 software.
(§7) Nonlinear dose-response curve fitting was carried out using the Microsoft Excel add-in, XLfit (IDBS). Percentage inhibition data were either fitted to a standard 4-parameter logistic fit model (XLfit model 205; Equation 2) or a biphasic model (either XLfit model 300; Equation 3 or a custom biphasic model; Equation 4 (used in cases where the top and/or bottom parameters deviated from 100%/0% inhibition)).(2) y=A+(B−A)/1+(C/x)^D Where A = % inhibition at bottom, B = % inhibition at top, C = IC50, D = slope, x = inhibitor concentration and y = % inhibition.(3) y=(A/(1+10^(C−log(x))∗B))+((100−A)/(1+10^(D−log(x))∗B)) With A = % inhibition at midplateau, B = slope, C = log(IC50^A), D = log(IC50^B)).
(§8) All IC50 data generated were converted to pIC50 using Equation 5.

[2] = target: native T. cruzi proteasome (caspase-like activity, β1) (Trypanosoma cruzi, UniProt V5BHX1); test: Caspase-like activity assay (Proteasome-Glo), native T. cruzi proteasome; type: biochemical; conditions: mean ± SD, N = 3; for IC50: read-out: pIC50, Caspase Assay, Native (converted)
Description: as §1, §2, §3, §4, §5, §6, §7, §8

[3] = target: recombinant β4^R mutant T. cruzi proteasome (caspase-like activity) (Trypanosoma cruzi, UniProt V5BHX1); test: Caspase-like activity assay (Proteasome-Glo), recombinant β4^R mutant T. cruzi proteasome; type: biochemical; conditions: for pIC50, Caspase Assay, β4^R mutant: mean ± SD, N = 3
Description: (§9) Point mutations were created in individual subunits using overlapping PCR from the original templates using Polh and Tn7L primers outside the genes and suitable internal primers to introduce selected mutations. For Δβ1Δβ2, β1 Thr 55, and β2 Thr 67 were both mutated to Ala, the β4^R mutant was produced by mutating Phe 24 and Ile 29 to Leu and Met respectively in β4 subunit.
as §1, §2
(§10) Proteasome assays were carried out using 384-well, white, low-volume plates (catalog number 784904) (Greiner Bio-One) at room temperature (∼23 °C) in 8 μl reaction volumes. When activity checks were to be run in the presence or absence of a fixed concentration of proteasome inhibitor, 80 nL of the inhibitor (at a concentration 100x the required final assay concentration), or 80 nL dimethylsulfoxide (DMSO), were dispensed into assay plates using an Echo 550 acoustic dispenser (Labcyte).
(§11) A 1 in 2 dilution series of the various T. cruzi proteasome samples (native, recombinant WT, β4^R mutant, and Δβ1Δβ2 mutant) were produced in assay buffer (50 mM Tris–HCl, pH 7.5, 10 mM sucrose, 5 mM MgCl2, 1 mM DTT, 2 mM ATP, 150 mM NaCl, 1 mM EDTA, and 0.05 mg/ml bovine serum albumin). Subsequently, 4 μl of the various concentrations of diluted proteasome were added to assay plates using an electronic multichannel pipette (Integra Biosciences Ltd). When kinetic read activity checks were performed (Fig. 2), proteasome final assay concentrations used were 115 μg/ml, 115 μg/ml, and 230 μg/ml native proteasome (in the chymotrypsin, trypsin, and caspase assays, respectively), and 4.1 μg/ml, 3.4 μg/ml, or 1.4 μg/ml recombinant WT proteasome (in the chymotrypsin, trypsin, and caspase assays, respectively). When activity checks were to be run in the presence or absence of a proteasome inhibitor plates containing inhibitor or DMSO control were incubated with the relevant proteasome sample for 60 min at room temperature (this step was not included in activity check experiments where compounds were not used).
(§12) Following the 60 min incubation of proteasome and compound (if required), assays were initiated with the addition of 4 μl of substrate mix (containing substrate and the luciferin detection reagent) using an electronic multichannel pipette. Final assay concentrations of substrates used were either 20 μM Suc-Leu-Leu-Val-Tyr-aminoluciferin, 15 μM Z-Leu-Arg-Arg-aminoluciferin, or 20 μM Z-Nle-Pro-Nle-Asp-aminoluciferin for chymotrypsin-, trypsin- or caspase-like activity respectively.
(§13) Luminescence was read either kinetically or as an endpoint read using an EnVision 2102 Multilabel Reader (PerkinElmer, Inc) with 0.2 s per well reading time. When kinetic assays were run, luminescence was read every 5 min for 90 min. Endpoint assays were run for 60 min before luminescence was read. All data processing and linear fit analyses were performed using Microsoft Excel for Microsoft 365 software (Redmond, Washington; https://www.microsoft.com/).

[4] = target: native T. cruzi proteasome (trypsin-like activity, β2) (Trypanosoma cruzi, UniProt V5BCU3); test: Trypsin-like activity assay (Proteasome-Glo), native T. cruzi proteasome; type: biochemical; conditions: mean ± SD, N = 3; for IC50: read-out: pIC50, Trypsin Assay, Native (converted)
Description: as §1, §2, §3, §4, §5, §6, §7, §8

[5] = target: recombinant β4^R mutant T. cruzi proteasome (trypsin-like activity) (Trypanosoma cruzi, UniProt V5BCU3); type: biochemical; conditions: mean ± SD, N = 3
Description: as §9, §1, §2, §10, §11, §12, §13

[6] = target: native T. cruzi proteasome (chymotrypsin-like activity, β5) (Trypanosoma cruzi, UniProt V5BU39+V5C017); test: Chymotrypsin-like activity assay (Proteasome-Glo), native T. cruzi proteasome; type: biochemical; conditions: for pIC50, Chymotrypsin Assay, Native: mean ± SD, N = 3, biphasic curves (a): pIC50 of most potent curve, 60 min preincubation
Description: as §1, §2, §3, §4, §5, §6, §7, §8

[7] = target: recombinant WT T. cruzi proteasome (chymotrypsin-like activity, β5) (Trypanosoma cruzi, UniProt V5BU39+V5C017); test: biochemical; type: biochemical; conditions: for maximum % inhibition plateau, Chymotrypsin Assay, Wild-type: mean ± SD, N = 3 (N = 2 for DDD02091966), (a) mid-point plateau from biphasic curve fits
Description: as §1, §2, §10, §11, §12, §13, §3

[8] = target: recombinant β4^R mutant T. cruzi proteasome (chymotrypsin-like activity) (Trypanosoma cruzi, UniProt V5BU39+V5C017, F24L/I29M); test: biochemical; type: biochemical; conditions: for pIC50, Chymotrypsin Assay, β4^R mutant: mean ± SD, N = 3, biphasic curves (a): pIC50 of most potent curve
Description: as §9, §1, §2, §10, §11, §12, §13

[9] = target: recombinant Δβ1Δβ2 mutant T. cruzi proteasome (chymotrypsin-like activity) (Trypanosoma cruzi, UniProt V5BU39+V5C017); test: biochemical; type: biochemical; conditions: for maximum % inhibition plateau, Chymotrypsin Assay, Δβ1Δβ2 mutant / pIC50, Chymotrypsin Assay, Δβ1Δβ2 mutant: mean ± SD, N = 3
Description: as §9, §1, §2, §10, §11, §12, §13

[10] = test system: intracellular T. cruzi Silvio X10/7 A1 amastigotes; test: Intracellular T. cruzi assay; type: cell-based; conditions: Trypanosoma cruzi; 96 h compound treatment, Vero host cells; given as [mean pEC50, SD, N]; read-out: Mean pEC50 against intracellular T. cruzi parasites (converted)
Description: Potency against intracellular T. cruzi Silvio X10/7 A1 amastigotes was determined as described previously ([53]), with a sole modification that the compound treatment duration was 96 h instead of 72 h. Vero host cells were obtained from The European Collection of Authenticated Cell Cultures (cat. number 84113001) and tested for mycoplasma (negative). T. cruzi Silvio X10/7 A1 was obtained from Prof. Alan Fairlamb, and discrete typing unit confirmed by genotyping ([53]).

[11] = target: recombinant WT T. cruzi proteasome (trypsin-like activity, β2) (Trypanosoma cruzi, UniProt V5BCU3); test: biochemical; type: biochemical; conditions: mean ± SD, N = 3; for IC50: read-out: pIC50, Trypsin Assay, Wild-type (converted)
Description: as §1, §2, §3, §4, §5, §6, §7, §8

Structure (SMILES) | IC50 [1] | IC50 [2] | IC50 [3] | IC50 [4] | pIC50, Trypsin Assay, β4^R mutant [5] | IC50 [6] | IC50 [7] | maximum % inhibition plateau, Chymotrypsin Assay, Wild-type [7] | IC50 [8] | IC50 [9] | IC50 [11] | other results
CC(C)C[C@H](NC(=O)[C@H](Cc1ccccc1)NC(=O)c1cnccn1)B(O)O [Bortezomib] | 72.4 nM | 72.4 nM | 93.3 nM |  |  |  |  |  |  |  |  | 
O=C(Nc1ccc(F)c(-c2cn3nc(N4CCOCC4)cnc3n2)c1)N1CCCC1 [DDD01012247] | > 30200 nM | > 30200 nM | > 30200 nM | > 30200 nM | <4.52 | 12 nM | 16.2 nM | 68.9 ± 3.5% | 6920 nM | 19.5 nM | > 30200 nM | EC50 [10]: 126 nM
CNC(=O)c1cc(NC(=O)c2ccc(=O)n(Cc3ccc(OC)cc3)n2)ccc1F [DDD02097487] | > 30200 nM | > 30200 nM | > 30200 nM | > 30200 nM | <4.52 | 120 nM | 178 nM | 48.2 ± 3.6% | > 30200 nM | 155 nM | > 30200 nM | extent of inhibition in chymotrypsin dose-response curve, Δβ1Δβ2 mutant ([9]; top of dose-response curve): unable to fully inhibit; EC50 [10]: 794 nM
CC[C@H](C)[C@H](NC(=O)[C@H]([C@@H](C)CC)N(C)C(C)=O)C(=O)N[C@H](C(=O)N[C@@H](CC(C)C)C(=O)[C@@]1(C)CO1)[C@@H](C)O [Epoxomicin, reference compound] |  |  |  |  | 6.11 ± 0.06 |  |  | 96.1 ± 3.0% |  |  |  | pIC50, Trypsin Assay, Native [4]: 6.08 ± 0.00; pIC50, Chymotrypsin Assay, Native [6]: 7.50 ± 0.12; pIC50, Chymotrypsin Assay, Wild-type [7]: 7.40 ± 0.17; pIC50, Caspase Assay, Wild-type [1]: 5.97 ± 0.03; pIC50, Caspase Assay, Native [2]: 5.99 ± 0.01; pIC50, Caspase Assay, β4^R mutant [3]: 5.88 ± 0.03; pIC50, Chymotrypsin Assay, β4^R mutant [8]: 7.33 ± 0.15; maximum % inhibition plateau, Chymotrypsin Assay, Δβ1Δβ2 mutant [9]: 100.1 ± 0.5%; pIC50, Chymotrypsin Assay, Δβ1Δβ2 mutant [9]: 7.44 ± 0.03; pIC50, Trypsin Assay, Wild-type [11]: 6.09 ± 0.04
CC(C)C[C@H](NC(=O)CNC(=O)c1cc(Cl)ccc1Cl)B(O)O [Ixazomib, reference compound] | 55 nM | 44.7 nM | 46.8 nM | 8710 nM | 5.53 ± 0.03 | 35.5 nM | 19.5 nM | 52.7 ± 21.9^ a % | 13.2 nM | 22.9 nM | 6920 nM | 
CCC[C@@H](C=O)NC(=O)[C@H](CC(C)C)NC(=O)[C@H](CC(C)C)NC(=O)OCc1ccccc1 [MG115, reference compound] (Cbz-Leu-Leu-[Nva]-aldehyde) |  |  |  |  | 5.24 ± 0.05 |  |  | 93.3 ± 2.9% |  |  |  | pIC50, Trypsin Assay, Native [4]: 4.89 ± 0.16; pIC50, Chymotrypsin Assay, Native [6]: 6.04 ± 0.08; pIC50, Chymotrypsin Assay, Wild-type [7]: 6.07 ± 0.13; pIC50, Caspase Assay, Wild-type [1]: 4.77 ± 0.07; pIC50, Caspase Assay, Native [2]: 4.79 ± 0.11; pIC50, Caspase Assay, β4^R mutant [3]: 5.03 ± 0.04; pIC50, Chymotrypsin Assay, β4^R mutant [8]: 6.24 ± 0.05; maximum % inhibition plateau, Chymotrypsin Assay, Δβ1Δβ2 mutant [9]: 99.4 ± 1.0%; pIC50, Chymotrypsin Assay, Δβ1Δβ2 mutant [9]: 6.38 ± 0.16; pIC50, Trypsin Assay, Wild-type [11]: 4.97 ± 0.09
CC(C)C[C@@H](C=O)NC(=O)[C@H](CC(C)C)NC(=O)[C@H](CC(C)C)NC(=O)OCc1ccccc1 [MG132, carbobenzoxy-l-leucyl-l-leucyl-l-leucinal, reference compound] (Cbz-Leu-Leu-Leu-aldehyde) | 3310 nM | 3980 nM | 3090 nM | 8910 nM | 5.21 ± 0.11 | 120 nM | 115 nM | 66.1 ± 6.6^ a % | 60.3 nM | 91.2 nM | 8320 nM | 
COC[C@H](NC(=O)c1cnc(C)s1)C(=O)N[C@@H](COC)C(=O)N[C@@H](Cc1ccccc1)C(=O)[C@@]1(C)CO1 [Oprozomib] | > 30200 nM | > 30200 nM | > 30200 nM | > 30200 nM | <4.52 |  |  |  |  |  | > 30200 nM | 
